In patent publication US8518958B2, “Pyrido [2,3-D] pyrimidines and their use as kinase inhibitors” (Forma Therapeutics, Inc., priority 2006, dated 2013):

Columns and labels:
B-Raf delta1-415 = B-Raf delta1-415 (Homo sapiens, UniProt P15056); assay: B-Raf kinase inhibition (MAPH filter plate, 33P-ATP, MEK1 substrate); settings: read-out: Biochemical IC50 B-Raf
In short: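 Radiometric filter-binding assay with B-Raf delta1-415 at a level giving 50% turnover, MEK1 substrate and 33P-ATP (12.5 μCi/ml) in 20 mM Mops pH 7.0 with Mg/Mn, 1 h at room temperature. Inhibitor dilution series from 10 μM; EDTA-stopped reactions captured on phosphocellulose filters, counted by scintillation for IC50.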

HT-29 tumor cells = assay: Anti-proliferative activity, SRB assay; assay type: cell-based, human; settings: Homo sapiens, HT-29, 72 h, 72 hours exposure, read-out: CELLULAR IC50 HT-29
In short: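 Cells at 3,000-15,000/well, plated 24 h before compound, exposed to a concentration range for 72 hours. Proliferation measured by SRB staining after cold TCA fixation, absorbance at OD570; IC50 estimated from % inhibition versus DMSO-treated cells.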

Chain of B-Raf delta1-415 (P15056 416-766): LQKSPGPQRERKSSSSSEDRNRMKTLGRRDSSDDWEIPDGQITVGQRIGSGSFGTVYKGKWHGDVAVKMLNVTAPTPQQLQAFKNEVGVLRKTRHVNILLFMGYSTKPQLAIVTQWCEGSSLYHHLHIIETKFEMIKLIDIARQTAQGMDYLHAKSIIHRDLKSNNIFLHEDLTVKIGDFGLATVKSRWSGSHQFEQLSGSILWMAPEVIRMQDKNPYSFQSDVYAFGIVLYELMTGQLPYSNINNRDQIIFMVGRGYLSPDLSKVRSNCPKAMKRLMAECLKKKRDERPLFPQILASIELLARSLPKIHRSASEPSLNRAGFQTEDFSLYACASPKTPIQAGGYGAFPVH

Row | Compound | IC50 (B-Raf delta1-415) [nM] | IC50 (HT-29 tumor cells) [nM]
1 | CC(C)(C)On1c(=O)c(Br)cc2cnc(Nc3ccccc3)nc21 [Compound 239] | > 10000 | > 10000
2 | COn1c(=O)c(-c2c(Cl)cccc2Cl)cc2cnc(Nc3cccc(S(C)(=O)=O)c3)nc21 [Compound 157, 6-(2,6-Dichlorophenyl)-8-methoxy-2-(3-methylsulfonylphenyl)-amino-pyrido[2,3-d]pyrimidin-7-one] | < 100 | < 1000
3 | COn1c(=O)c(-c2c(Cl)cccc2Cl)cc2cnc(Nc3ccc(C(F)(F)F)c(Cl)c3)nc21 [Compound 133, 2-(3-Chloro-4-trifluoromethylphenyl)-amino-6-(2,6-dichlorophenyl)-8-methoxy-pyrido[2,3-d]pyrimidin-7-one] | > 1000 | < 10000
4 | COn1c(=O)c(-c2c(Cl)cccc2Cl)cc2cnc(Nc3cc(C(=O)N(C)CCO)n(C)c3)nc21 [Compound 116, 6-(2,6-Dichlorophenyl)-2-(5-(N-(2-hydroxyethyl)-N-methyl-amino)carbonyl-1-methyl-pyrrol-3-yl)-amino-8-methoxy-pyrido[2,3-d]pyrimidin-7-one] | < 100 | < 1000
5 | COn1c(=O)c(-c2c(Cl)cccc2Cl)cc2cnc(Nc3cccc(NS(C)(=O)=O)c3)nc21 [Compound 119, 6-(2,6-Dichlorophenyl)-8-methoxy-2-(3-methylsulfonylaminophenyl)-amino-pyrido[2,3-d]pyrimidin-7-one] | < 100 | < 1000
6 | COn1c(=O)c(-c2c(Cl)cccc2Cl)cc2cnc(Nc3nncs3)nc21 [Compound 90, 6-(2,6-Dichlorophenyl)-8-methoxy-2-(1-thia-3,4-diazol-2-yl)-amino-pyrido[2,3-d]pyrimidin-7-one] | < 500 | < 10000
7 | COn1c(=O)c(-c2c(Cl)cccc2Cl)cc2cnc(Nc3cc(C(=O)NC[C@H](O)CO)n(C)c3)nc21 [Compound 118, 6-(2,6-Dichlorophenyl)-2-(5-(2-(S)-2,3-dihydroxyethylamino)carbonyl-1-methyl-pyrrol-3-yl)-amino-8-methoxy-pyrido[2,3-d]pyrimidin-7-one] | < 100 | < 10000
8 | COCCN(C)C(=O)c1cc(Nc2ncc3cc(-c4c(Cl)cccc4Cl)c(=O)n(OCC4CC4)c3n2)cn1C [Compound 176, 6-(2,6-Dichlorophenyl)-8-cyclopropylmethyloxy-2-(5-N-(2-methoxyethyl)-N-methyl-aminocarbonyl-1-methyl-pyrrol-3-yl)-amino-pyrido[2,3-d]pyrimidin-7-one] | < 500 | < 1000
9 | Cn1cc(Nc2ncc3cc(-c4c(Cl)cccc4Cl)c(=O)n(OC[C@H](O)CO)c3n2)cc1C(=O)NCCN1CCCC1 [Compound 108, 6-(2,6-Dichlorophenyl)-8-(2-(R)-2,3-dihydroxypropyl)oxy-2-(5-(2-pyrrolidinoethyl)aminocarbonyl-1-methyl-pyrrol-3-yl)-amino-pyrido[2,3-d]pyrimidin-7-one] | < 500 | < 1000
10 | CCOn1c(=O)c(-c2c(Cl)cccc2Cl)cc2cnc(Nc3cc(C(=O)N(C)CCOC)n(C)c3)nc21 [Compound 171, 6-(2,6-Dichlorophenyl)-8-ethoxy-2-(5-N-(2-methoxyethyl)-N-methyl-aminocarbonyl-1-methyl-pyrrol-3-yl)-amino-pyrido[2,3-d]pyrimidin-7-one] | < 500 | < 1000

Now from value to molecule:

Row | IC50 (B-Raf delta1-415) [nM] | IC50 (HT-29 tumor cells) [nM] | Compound
11 | < 500 | < 1000 | COn1c(=O)c(-c2c(Cl)cccc2Cl)cc2cnc(Nc3ccc(N4CCN(S(C)(=O)=O)CC4)cc3)nc21 [Compound 200, 6-(2,6-Dichlorophenyl)-8-methoxy-2-(4-(4-methylsulfonyl)piperazino-phenyl)-amino-pyrido[2,3-d]pyrimidin-7-one]
12 | < 100 | < 1000 | O=c1c(-c2c(F)cccc2Cl)cc2cnc(Nc3ccc(N4CCOCC4)cc3)nc2n1OCc1cccnc1 [Compound 132]
13 | < 100 | < 1000 | COn1c(=O)c(-c2c(Cl)cccc2Cl)cc2cnc(Nc3ccc(NS(C)(=O)=O)cc3)nc21 [Compound 111, 6-(2,6-Dichlorophenyl)-8-methoxy-2-(4-methylsulfonylaminophenyl)-amino-pyrido[2,3-d]pyrimidin-7-one]
14 | > 1000 | < 1000 | COC(=O)c1ccc(Nc2ncc3cc(-c4c(Cl)cccc4Cl)c(=O)n(OC)c3n2)cc1 [Compound 162, 6-(2,6-Dichlorophenyl)-2-(4-methoxycarbonylphenyl)-amino-8-methoxy-pyrido[2,3-d]pyrimidin-7-one]
15 | < 500 | < 1000 | COn1c(=O)c(-c2c(Cl)cccc2Cl)cc2cnc(Nc3ccc(CC(=O)NCCN4CCCC4)cc3)nc21 [Compound 115, 6-(2,6-Dichlorophenyl)-8-methoxy-2-(4-(2-pyrrolidinoethylaminocarbon-ylmethyl)phenyl)-amino-pyrido[2,3-d]pyrimidin-7-one]
16 | < 100 | < 1000 | COn1c(=O)c(-c2c(F)cccc2Cl)cc2cnc(Nc3ccc(N4CCNCC4)c(C#N)c3)nc21 [Compound 213, 6-(2-Chloro-6-fluorophenyl)-8-methoxy-2-(3-cyano-4-piperazinophenyl)-amino-pyrido[2,3-d]pyrimidin-7-one]
17 | < 500 | < 1000 | O=c1c(-c2c(F)cccc2Cl)cc2cnc(Nc3ccc(N4CCOCC4)cc3)nc2n1OCC1CCC1 [Compound 172]
18 | < 100 | < 1000 | COn1c(=O)c(-c2c(Cl)cccc2Cl)cc2cnc(Nc3cccc(Cn4cncn4)c3)nc21 [Compound 134, 6-(2,6-Dichlorophenyl)-8-methoxy-2-(3-(1,2,4-triazol-1-ylmethyl)phenyl)-amino-pyrido[2,3-d]pyrimidin-7-one]
19 | < 500 | < 1000 | COCCOn1c(=O)c(-c2c(F)cccc2Cl)cc2cnc(Nc3ccc(N4CCNCC4)cc3)nc21 [Compound 216, 6-(2-Chloro-6-fluorophenyl)-8-(2-methoxyethyl)oxy-2-(4-piperazinophenyl)-amino-pyrido[2,3-d]pyrimidin-7-one]
20 | < 500 | < 1000 | COn1c(=O)c(-c2c(Cl)cccc2Cl)cc2cnc(Nc3cccc(S(=O)(=O)N4CCOCC4)c3)nc21 [Compound 127, 6-(2,6-Dichlorophenyl)-2-(3-morpholinosulfonylphenyl)-amino-8-methoxy-pyrido[2,3-d]pyrimidin-7-one]
21 | < 100 | < 1000 | O=c1c(-c2c(F)cccc2Cl)cc2cnc(Nc3ccc(N4CCOCC4)cc3)nc2n1OCC1CC1 [Compound 129]
22 | < 500 | < 1000 | COn1c(=O)c(-c2c(F)cccc2Cl)cc2cnc(Nc3cc(C(=O)N(C)CCOC(=O)c4cccnc4)n(C)c3)nc21 [Compound 220]
23 | < 500 | < 10000 | COn1c(=O)c(-c2c(Cl)cccc2Cl)cc2cnc(NCc3cccnc3)nc21 [Compound 146, 6-(2,6-Dichlorophenyl)-8-methoxy-2-pyrid-3-ylmethylamino-pyrido[2,3-d]pyrimidin-7-one]
24 | < 500 | < 1000 | COn1c(=O)c(-c2c(Cl)cccc2Cl)cc2cnc(Nc3ccc(CN4CCC4)cc3)nc21 [Compound 201, 2-(4-(1-azacyclobutyl)methylphenyl)-amino-6-(2,6-dichlorophenyl)-8-methoxy-pyrido[2,3-d]pyrimidin-7-one]
